ChEMBL document CHEMBL4007498, “Design and synthesis of hybrids of diarylpyrimidines and diketo acids as HIV-1 inhibitors” (Bioorg Med Chem Lett, 2017)

Tests used:
[1] = Selectivity index, ratio of CC50 for human MT4 cells to EC50 for wild type HIV1 3B; format: toxicity; settings: read-out: Ratio CC50/EC50
[2] = test system: Human immunodeficiency virus 1; test: Antiviral activity against wild type HIV1 3B infected in human MT4 cells assessed as inhibition of viral replication after 5 days by MTT assay; format: functional, cell-based; settings: Human immunodeficiency virus 1, 3B, MT4, 120 h
[3] = test system: Human immunodeficiency virus 2; test: Antiviral activity against HIV2 ROD infected in human MT4 cells assessed as inhibition of viral replication after 5 days by MTT assay; format: functional, cell-based; settings: Human immunodeficiency virus 2, ISOLATE ROD, MT4, 120 h
[4] = Cytotoxicity against human MT4 cells assessed as decrease in cell viability after 5 days by MTT assay; format: cell-based
[5] = test system: Human immunodeficiency virus 1; test: Antiviral activity against HIV1 harboring reverse transcriptase L100I mutant infected in human MT4 cells assessed as inhibition of viral replication after 5 days by MTT assay; format: functional, cell-based; settings: Human immunodeficiency virus 1, MT4, 120 h
[6] = test system: Human immunodeficiency virus 1; test: Antiviral activity against HIV1 harboring reverse transcriptase F227L/V106A double mutant infected in human MT4 cells assessed as inhibition of viral replication after 5 days by MTT assay; format: functional, cell-based; settings: Human immunodeficiency virus 1, MT4, 120 h
[7] = molecular target: Human immunodeficiency virus type 1 reverse transcriptase (Human immunodeficiency virus 1, UniProt Q72547); test: Inhibition of recombinant wild type HIV-1 reverse transcriptase p66/p51 using poly(rA)/oligo(dT)16 as template/primer after 40 mins by ELISA
[8] = test system: Human immunodeficiency virus 1; test: Antiviral activity against HIV1 harboring reverse transcriptase Y188L mutant infected in human MT4 cells assessed as inhibition of viral replication after 5 days by MTT assay; format: functional, cell-based; settings: Human immunodeficiency virus 1, MT4, 120 h
[9] = test system: Human immunodeficiency virus 1; test: Antiviral activity against HIV1 harboring reverse transcriptase E138K mutant infected in human MT4 cells assessed as inhibition of viral replication after 5 days by MTT assay; format: functional, cell-based; settings: Human immunodeficiency virus 1, MT4, 120 h
[10] = test system: Human immunodeficiency virus 1; test: Antiviral activity against HIV1 harboring reverse transcriptase K103N mutant infected in human MT4 cells assessed as inhibition of viral replication after 5 days by MTT assay; format: functional, cell-based; settings: Human immunodeficiency virus 1, MT4, 120 h
[11] = test system: Human immunodeficiency virus 1; test: Antiviral activity against HIV1 RES056 harboring reverse transcriptase K103N/Y181C double mutant infected in human MT4 cells assessed as inhibition of viral replication after 5 days by MTT assay; format: functional, cell-based; settings: Human immunodeficiency virus 1, RES056, MT4, 120 h
[12] = test system: Human immunodeficiency virus 1; test: Antiviral activity against HIV1 harboring reverse transcriptase Y181C mutant infected in human MT4 cells assessed as inhibition of viral replication after 5 days by MTT assay; format: functional, cell-based; settings: Human immunodeficiency virus 1, MT4, 120 h

SMILES | selectivity ratio [1] | EC50 [2] | EC50 [3] | CC50 at 120 h [4] | EC50 [5] | EC50 [6] | IC50 [7] | EC50 [8] | EC50 [9] | EC50 [10] | EC50 [11] | EC50 [12]
O=C(O)C(=O)CC(=O)c1ccc(O)cc1 | 1 | > 600 µM | > 600 µM | > 600 µM | – | – | – | – | – | – | – | –
CCOC(=O)C(=O)CC(=O)c1cccc(Oc2ccnc(Nc3ccc(C#N)cc3)n2)c1 | 78 | 0.18 µM | > 10 µM | 14 µM | > 13 µM | > 13 µM | 6.06 µM | > 13 µM | 10 µM | 13 to 14 µM | 13 to 14 µM | > 13 µM
N#Cc1ccc(Nc2nccc(Oc3cccc(C(=O)CC(=O)C(=O)O)c3)n2)cc1 | 71 to 442 | 0.14 µM | > 8 µM | 10 to 62 µM | > 10 µM | 59 µM | 5.93 µM | > 10 µM | 43 µM | 38 µM | 9 to 10 µM | 50 µM
CCOC(=O)C(=O)CC(=O)c1ccc(O)cc1 | < 1 | > 466 µM | > 312 µM | 466 µM | – | – | – | – | – | – | – | –
Cc1cc(C#N)cc(C)c1Oc1nc(Nc2ccc(C#N)cc2)nc(N)c1Br [ETRAVIRINE] | – | 0.0033 µM | – | 4.6 to 5 µM | – | 0.022 µM | – | 0.022 µM | 0.015 µM | 0.0036 to 0.004 µM | 0.03 µM | –
N#Cc1ccc(Nc2nccc(Oc3ccc(C(=O)CC(=O)C(=O)O)cc3)n2)cc1 | 182 to 183 | 0.23 µM | > 28 µM | 42 µM | > 48 µM | > 48 µM | 25.2 µM | > 48 µM | 10 µM | 42 to 48 µM | 42 to 48 µM | > 48 µM
O=C(O)/C(O)=C/C(=O)c1cccc(Cc2ccccc2)c1 | > 61 | – | – | > 10 µM | – | – | > 100 µM | – | – | – | – | –
Cc1cn([C@H]2C[C@H](N=[N+]=[N-])[C@@H](CO)O2)c(=O)[nH]c1=O [ZIDOVUDINE] | 971 to 974 | 0.0077 µM | – | 7 to 7.5 µM | 0.0052 µM | 0.0035 µM | – | 0.007 µM | 0.009 µM | 0.016 µM | 0.008 to 0.01 µM | 0.0057 µM
CCOC(=O)C(=O)CC(=O)c1ccc(Oc2ccnc(Nc3ccc(C#N)cc3)n2)cc1 | 95 | 0.19 µM | > 16 µM | 18 µM | > 22 µM | > 22 µM | 5.86 µM | > 22 µM | 7 µM | 10 µM | 18 to 22 µM | > 22 µM
O=C(O)C(=O)CC(=O)c1cccc(O)c1 | < 1 | > 528 µM | > 528 µM | 528 µM | – | – | – | – | – | – | – | –
O=C1Nc2ccc(Cl)cc2[C@@](C#CC2CC2)(C(F)(F)F)O1 [EFAVIRENZ] | 1720 to 2510 | 0.0037 to 0.0054 µM | – | 9 to 9.3 µM | 0.038 µM | 0.13 µM | – | 0.17 µM | 0.0047 µM | 0.12 to 0.17 µM | 0.12 to 0.17 µM | 0.0054 µM
CCOC(=O)C(=O)CC(=O)c1cccc(O)c1 | < 1 | 356 to 357 µM | > 357 µM | 356 to 364 µM | – | – | – | – | – | – | – | –
Cc1ccnc2c1NC(=O)c1cccnc1N2C1CC1 [NEVIRAPINE] | > 179 | 0.084 µM | – | > 15 µM | 1.8 µM | > 15 µM | – | > 15 µM | 0.21 µM | > 15 µM | > 15 µM | > 15 µM
